Where two headings read alike, the source gives them in different places.
How the values were obtained:
[1] = system: Chaetomium globosum; experiment: Determination of the MIC against fungi, agar incorporation test; type: cell-based; settings: for MIC: read-out: MIC against fungi, strain D
Protocol: (§1) Strains: A) Aspergillus niger, B) Sacharomyces cerevisiae, C) Penicillium funiculosum, D) Chaetomium globosum, E) Aureobasidium pullulans and F) Coniophora puteana.
(§2) The investigation is carried out by the known agar incorporation test in malt extract agar (Merck). For the inhibition, the various compounds are in each case added in an amount such that concentrations of 10, 50 and 100 mg/1 result in the agar. The concentrations (mg/1) required for inhibiting the growth of the fungi (starting from fungus spores dripped on) are illustrated in Table 2.

[2] = system: Aspergillus niger; experiment: as above; type: cell-based; settings: for MIC: read-out: MIC against fungi, strain A
Protocol: as §1, §2

[3] = system: Coniophora puteana; experiment: as above; type: cell-based; settings: for MIC: read-out: MIC against fungi, strain F
Protocol: as §1, §2

[4] = system: Sacharomyces cerevisiae; experiment: as above; type: cell-based; settings: for MIC: read-out: MIC against fungi, strain B
Protocol: as §1
(§3) The investigation is carried out by the known agar incorporation test in malt extract agar (Merck).

[5] = system: Aureobasidium pullulans; experiment: as above; type: cell-based; settings: for MIC: read-out: MIC against fungi, strain E
Protocol: as §1, §3

[6] = system: Penicillium funiculosum; experiment: as above; type: cell-based; settings: for MIC: Talaromyces funiculosus, read-out: MIC against fungi, strain C
Protocol: as §1, §3

[7] = system: mixture of algae Chlorella vulgaris, Chlorella spec. and Scenedesmus obliques; experiment: Algicide test in polyisobutylene roof sheeting; type: cell-based; settings: for algae growth after 6 weeks: comparison film 2; for algae growth after 3 weeks: comparison film 2-3
Protocol: To test the activity against attack by algae, various concentrations, which can be seen from Table 3, of the compound according to Example 1 are incorporated into roof sheeting consisting of polyisobutylene. A roof sheeting without biocide is investigated as a comparison.
A 1 cm^2 piece of film from each test strip is kept in water for 5 days, in each case placed on an algae agar plate and inoculated with 0.1 ml of a 1+1+1 mixture of 14-day cultures of the algae Chlorella vulgaris and Chlorella spec. (isolated from damage cases in practice) and Scenedesmus obliques, which had been diluted 1/10 in saline.
After 3 weeks, the plates are evaluated and the films are placed in fresh agar and inoculated again.
Evaluation of the growth after 3 and 6 weeks under artificial light is performed in accordance with the following scheme.
2=partial growth on the film
3=growth up to the edge of the film
4=inhibiting aerola around the film <5 mm
5=inhibiting aerola around the film >5 mm
Example 19 is repeated, except that instead of the stated concentrations of compound according to Example 1 alone, a combination of 1% by weight of the compound according to Example 1 and 0.07% by weight of 2-methylthio-4-t-butylamino-6-cyclopropylamino-s-triazine is used.

[8] = system: Poria placenta; experiment: Limit of activity against wood-destroying Basidiomycetes (EN 113); set-up: species or system Poria placenta (Fries) Cooke sensu. J. Eriksson; settings: Poria placenta strain 96, pine, isopropanol/water (1:1), 16 weeks
Source text: (§4) Determination of the limit of the activity against wood-destroying Basidiomycetes bred on agar (in accordance with EN 113). The test methods described in this European Standard is a laboratory method which forms a basis for evaluation of the activity of a wood preservative against wood-destroying Basidiomycetes.
Poria placenta (Fries) Cooke sensu. J. Eriksson, strain SPRL 280, for soft timbers=strain 96, Breeding of the strain and composition of the nutrient medium were as described in EN 113.
(§5) Solutions of isopropanol/water (1:1) containing 0.2%, 0.5%, 1%, 2% and 5% of active substance according to Example 1 are prepared.
(§6) The specimen woods of pine, nominal dimensions: 50 mm×25 mm×15 mm, are obtained and prepared as described in EN 113.
(§7) The impregnation according to EN 113 ensures complete thorough impregnation of the specimen woods with the wood preservative solution.
(§8) The amount of preservative absorbed is converted into weight per unit volume of the wood. […]
(§9) The limit of the activity of a wood preservative is determined by the two amounts of wood preservative which correspond to the lowest concentration which preserves the wood and the next lowest concentration in the series, at which the wood is no longer adequately preserved. […]

[9] = system: Gleophyllum trabeum; experiment: as above; set-up: species or system Gloeophyllum trabeum (Persoon ex Fries) Murrill; settings: Gleophyllum trabeum strain 94, pine, 16 weeks
Source text: as §4
Gloeophyllum trabeum (Persoon ex Fries) Murrill, strain […], for soft timbers=strain 94, Breeding of the strain and composition of the nutrient medium were as described in EN 113.
as §5, §6, §7, §8, §9

[10] = system: Coniophora puteana; experiment: as above; set-up: species or system Coniophora puteana (Schumacher ex Fries) Karsten; settings: Coniophora puteana strain 91, pine, isopropanol/water (1:1), 16 weeks
Source text: as §4
Coniophora puteana (Schumacher ex Fries) Karsten, strain FPRL 11E, for soft timbers=strain 91, Breeding of the strain and composition of the nutrient medium were as described in EN 113.
as §5, §6, §7, §8, §9

[11] = system: hydroids; experiment: Anti-fouling paint exposure in the North Sea; settings: 61/2 weeks, 0 = completely covered with growth, 10 = completely free
Protocol: (§10) To test the activity against growth on objects immersed in the sea, the compound according to Example 1 is incorporated into anti-fouling paints. An anti-fouling paint such as is known to the expert and which is based on vinyl chloride copolymer/rosin (2/1 part by weight) with a pigment volume concentration of about 40%, and a second anti-fouling paint of similar make-up but with a higher rosin content (vinyl chloride copolymer/rosin=1/1) are prepared. The compound according to Example 1 is incorporated into these paints, the paint is brushed onto specimen sheets and, after drying (10 days), the sheets are suspended in the North Sea. The corresponding paints but without adding of the product are exposed in the same way for comparison. On a rating scale of 0 (=completely covered with growth) to 10 (=completely free from growth), the following results are obtained after exposure for 61/2 weeks (growth by hydroids=HY; growth by barnacles=BA): […]

[12] = system: barnacles; experiment: Anti-fouling paint exposure in the North Sea; settings: 61/2 weeks, 0 = completely covered with growth, 10 = completely free
Protocol: as §10

[13] = system: wood-destroying fungi; experiment: Limit of activity against wood-destroying Basidiomycetes (EN 113), summary
Source text: as §4

[14] = malt extract agar, tested 10, 50, 100 mg/l
[15] = Sacharomyces cerevisiae, malt extract agar, tested 10, 50, 100 mg/l
[16] = Penicillium funiculosum, malt extract agar, tested 10, 50, 100 mg/l

| Compound | MIC [1, 14] | MIC [2, 14] | MIC [3, 14] | MIC [4, 15] | MIC [5, 14] | MIC [6, 16] | MIC [2] | other results |
| --- | --- | --- | --- | --- | --- | --- | --- | --- |
| CCCCCCCCCCCCCC[P+](CCCC)(CCCC)CCCC [Example 1, Tri-n-butyl-n-tetradecylphosphonium tetrafluoborate] | – | 50 µg/mL | – | 10 µg/mL | 50 µg/mL | 10 µg/mL | – | algae growth after 6 weeks ([7]; 0,1 % by weight in film): 4 (inhibiting aerola around the film <5 mm); algae growth after 3 weeks ([7]; 0,1 % by weight in film): 4 (inhibiting aerola around the film <5 mm); algae growth after 6 weeks ([7]; 0,5 % by weight in film): 4 (inhibiting aerola around the film <5 mm); algae growth after 3 weeks ([7]; 0,5 % by weight in film): 4 (inhibiting aerola around the film <5 mm); algae growth after 6 weeks ([7]; 1 % by weight in film): 4 (inhibiting aerola around the film <5 mm); algae growth after 3 weeks ([7]; 1 % by weight in film): 4 (inhibiting aerola around the film <5 mm); Effective concentration [8]: 1.0-2.0%; MIC against fungi, strain D [1, 14]: 10 mg/L; MIC against fungi, strain F [3, 14]: 10 mg/L; Take-up (limit of the activity) [9]: ≤ 1.0 kg/m^3; Effective concentration ([9]; isopropanol/water (1:1)): ≤ 0.2%; Effective concentration [10]: 0.5-1.0%; growth by hydroids (HY), rating ([11]; Vinyl/rosin 1:1 paint with additive, without additive HY 0): 4; growth by hydroids (HY), rating ([11]; Vinyl/rosin 2:1 paint with additive, without additive HY 5): 8; growth by barnacles (BA), rating ([12]; Vinyl/rosin 1:1 paint with additive, without additive BA 0): 10; growth by barnacles (BA), rating ([12]; Vinyl/rosin 2:1 paint with additive, without additive BA 5): 8; activity against wood-destroying fungi [13]: highly effective |
| CCCCCCCCCCCCCC[N+](CCCC)(CCCC)CCCC [Example 5, Tri-n-butyl-n-tetradecylammonium tetrafluoborate] | 50 µg/mL | – | – | 50 µg/mL | 50 µg/mL | 50 µg/mL | 100 µg/mL | MIC [3]: 100 µg/mL |
| CCCCCCCCCCCCCC[P+](CCCC)(CCCC)CCCC [Example 2, Tri-n-butyl-n-tetradecylphosphonium hexafluophosphate] | – | – | – | – | – | – | – | MIC against fungi, strain D [1, 14]: 100 mg/L; MIC against fungi, strain A [2, 14]: 100 mg/L; MIC against fungi, strain F [3, 14]: 100 mg/L; MIC against fungi, strain B [4, 15]: 10 mg/L; MIC against fungi, strain E [5, 14]: 50 mg/L; MIC against fungi, strain C [6, 16]: 10 mg/L |
| CCCCCCCCCCCC[N+](CCO)(CCO)Cc1ccccc1 [Example 6, Bis(hydroxyethyl)benzyl-n-dodecylammonium tetrafluoborate] | 50 µg/mL | – | 50 µg/mL | 50 µg/mL | 10 µg/mL | 10 µg/mL | > 100 µg/mL | – |
| CCCCCCCCCCCC[N+]1(Cc2ccccc2)CCOCC1 [Example 14] | – | – | 50 µg/mL | – | – | 50 µg/mL | > 100 µg/mL | MIC [1]: 100 µg/mL; MIC [4]: > 100 µg/mL; MIC [5]: 10 µg/mL |
| CCCCCCCCCCCC[P+](c1ccccc1)(c1ccccc1)c1ccccc1 [Example 3, Triphenyl-n-dodecylphosphonium tetrafluoborate] | – | – | – | – | – | – | 100 µg/mL | MIC [1]: 50 µg/mL; MIC [3]: 50 µg/mL; MIC [4]: 50 µg/mL; MIC [5]: 10 µg/mL; MIC [6]: 10 µg/mL |

Continued, in another order:

| MIC [1, 14] | MIC [2, 14] | MIC [3, 14] | MIC [4, 15] | MIC [5, 14] | MIC [6, 16] | Compound | MIC [2] | other results |
| --- | --- | --- | --- | --- | --- | --- | --- | --- |
| 50 µg/mL | > 100 µg/mL | 50 µg/mL | > 100 µg/mL | 50 µg/mL | 50 µg/mL | CCCCCCCCCCCCCCCCCC[N+](CC)(CC)CC [Example 9] | – | – |
| 50 µg/mL | 100 µg/mL | 10 µg/mL | 100 µg/mL | 10 µg/mL | 50 µg/mL | CCCCCCCCCCCCCC[N+](CCC)(CCC)CCC [Example 10] | – | – |
| 100 µg/mL | 100 µg/mL | 10 µg/mL | 100 µg/mL | 50 µg/mL | 10 µg/mL | CCCCCCCCCCCCCCCC[N+](CC)(CC)CC [Example 13] | – | – |
| 50 µg/mL | 50 µg/mL | 50 µg/mL | – | – | – | CCCCCCCCCCCCCC[N+](CC)(CC)CC [Example 8] | – | – |
| 100 µg/mL | > 100 µg/mL | 50 µg/mL | > 100 µg/mL | 50 µg/mL | 50 µg/mL | CCCCCCCCCCCC[N+](CC)(CC)CC [Example 7] | – | – |

— patent US5118346A, “Biocidally active compounds” (Ciba-Geigy Corporation, priority 1988, dated 1992)
